In PubChem BioAssay AID256 (DTP/NCI, 2004):
“And” between values parts separate entries of the source, which are not always exact repeats. Equal entries are not always repeated. Toxic doses and inconclusive results are not listed.

System: CD2F1 mice, L1210 leukemia ip, survival T/C
Assay: NCI In Vivo Anticancer Drug Screen. Data for tumor model L1210 Leukemia (intraperitoneal) in CD2F1 (CDF1) mice
Conditions: higher = longer survival
In short: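 Read-out first: treated-group measurement over vehicle-control measurement, expressed as a ratio. Animals bore a transplanted tumor line and were dosed with compound or vehicle.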

[1] = endpoint: mean survival time, dose: 25.0 mg/kg/injection, schedule: Q04DX002 (ip), vehicle: saline with Tween-80
[2] = endpoint: mean survival time, dose: 100.0 mg/kg/injection, schedule: Q04DX002 (ip), vehicle: saline with Tween-80
[3] = endpoint: mean survival time, dose: 100.0 mg/kg/injection, schedule: Q04DX003 (ip), vehicle: saline
[4] = endpoint: mean survival time, dose: 200.0 mg/kg/injection, schedule: Q04DX003 (ip), vehicle: saline
[5] = endpoint: mean survival time, dose: 100.0 mg/kg/injection, schedule: Q04DX003 (ip), vehicle: saline with Tween-80
[6] = endpoint: mean survival time, dose: 100.0 mg/kg/injection, schedule: Q01DX001 (ip), vehicle: saline
[7] = endpoint: mean survival time, dose: 200.0 mg/kg/injection, schedule: Q01DX001 (ip), vehicle: saline
[8] = endpoint: mean survival time, dose: 100.0 mg/kg/injection, schedule: Q01DX001 (ip), vehicle: saline with Tween-80
[9] = endpoint: mean survival time, dose: 400.0 mg/kg/injection, schedule: Q01DX001 (ip), vehicle: saline
[10] = endpoint: mean survival time, dose: 100.0 mg/kg/injection, schedule: Q01DX009 (ip), vehicle: saline with Tween-80
[11] = endpoint: mean survival time, dose: 200.0 mg/kg/injection, schedule: Q01DX009 (ip), vehicle: saline with Tween-80
[12] = endpoint: mean survival time, dose: 400.0 mg/kg/injection, schedule: Q01DX009 (ip), vehicle: saline with Tween-80

NC(CCCCNCC(CNCCCCC(N)C(=O)O)C(=O)O)C(=O)O (stereo not given)
T/C [1]: 105 % of control
T/C (endpoint: mean survival time, dose: 50.0 mg/kg/injection, schedule: Q04DX002 (ip), vehicle: saline with Tween-80): 98 % of control
T/C [2]: 94 % of control

CN(C)CCC(=O)c1ccc([N+](=O)[O-])cc1
T/C (endpoint: mean survival time, dose: 1.25 mg/kg/injection, schedule: Q01DX009 (ip), vehicle: saline with Tween-80): 102 % of control
T/C (endpoint: mean survival time, dose: 2.5 mg/kg/injection, schedule: Q01DX009 (ip), vehicle: saline with Tween-80): 96 % of control
T/C (endpoint: mean survival time, dose: 5.0 mg/kg/injection, schedule: Q01DX009 (ip), vehicle: saline with Tween-80): 95 % of control
T/C (endpoint: mean survival time, dose: 5.0 mg/kg/injection, schedule: Q04DX003 (ip), vehicle: saline with Tween-80): 100 % of control

CN1CCCN(C)C1c1cc([N+](=O)[O-])ccc1O
T/C (endpoint: mean survival time, dose: 6.25 mg/kg/injection, schedule: Q01DX009 (ip), vehicle: saline sonified): 100 % of control
T/C (endpoint: mean survival time, dose: 6.25 mg/kg/injection, schedule: Q04DX003 (ip), vehicle: saline sonified): 106 % of control
T/C (endpoint: mean survival time, dose: 12.5 mg/kg/injection, schedule: Q01DX009 (ip), vehicle: saline sonified): 98 % of control
T/C (endpoint: mean survival time, dose: 12.5 mg/kg/injection, schedule: Q04DX003 (ip), vehicle: saline sonified): 101 % of control
T/C (endpoint: mean survival time, dose: 25.0 mg/kg/injection, schedule: Q01DX009 (ip), vehicle: saline sonified): 89 % of control
T/C (endpoint: mean survival time, dose: 25.0 mg/kg/injection, schedule: Q04DX003 (ip), vehicle: saline sonified): 98 % of control

CC(C)C([N+](C)(C)C)P(=O)([O-])O (stereo not given)
T/C [3]: 101 % of control
T/C [4]: 96 % of control
T/C (endpoint: mean survival time, dose: 400.0 mg/kg/injection, schedule: Q04DX003 (ip), vehicle: saline): 101 % of control

O=[N+]([O-])c1cc2nsnc2cc1[N+](=O)[O-]
T/C [5]: 101 % of control
T/C (endpoint: mean survival time, dose: 200.0 mg/kg/injection, schedule: Q04DX003 (ip), vehicle: saline with Tween-80): 95 % of control
T/C (endpoint: mean survival time, dose: 400.0 mg/kg/injection, schedule: Q04DX003 (ip), vehicle: saline with Tween-80): 96 % of control

Cc1nc2ccccn2c(=O)c1Br
T/C (endpoint: mean survival time, dose: 50.0 mg/kg/injection, schedule: Q01DX001 (ip), vehicle: saline): 104 % of control
T/C [6]: 104 % of control
T/C [7]: 104 % of control

N#Cc1cn(C2CCCCC2)c2ncccc12
T/C [3]: 113 % of control
T/C [4]: 97 % of control

COC(=O)Nc1nc2ccc(C(=O)c3ccccc3)cc2[nH]1
T/C (endpoint: mean survival time, dose: 2.0 mg/kg/injection, schedule: Q04DX003 (ip), vehicle: saline with Tween-80): 94 % of control
T/C (endpoint: mean survival time, dose: 4.0 mg/kg/injection, schedule: Q04DX003 (ip), vehicle: saline with Tween-80): 94 % of control
T/C (endpoint: mean survival time, dose: 8.0 mg/kg/injection, schedule: Q04DX003 (ip), vehicle: saline with Tween-80): 91 % of control
T/C (endpoint: mean survival time, dose: 16.0 mg/kg/injection, schedule: Q04DX003 (ip), vehicle: saline with Tween-80): 100 % of control and 112 % of control

C=C(Br)CNC(=O)C(=O)OCC
T/C [5]: 105 % of control

O=[N+]([O-])O.[NH-]C1CCCCC1[NH-].[NH-]C1CCCCC1[NH-].[NH-]C1CCCCC1[NH-].[OH-].[OH-].[OH-].[Pt+4].[Pt+4].[Pt+4] (stereo not given)
T/C (endpoint: mean survival time, dose: 20.0 mg/kg/injection, schedule: Q04DX003 (ip), vehicle: water): 87 % of control

O=C(O)CCC(=O)c1ccc(Cl)cc1
T/C (endpoint: mean survival time, dose: 3.13 mg/kg/injection, schedule: Q04DX002 (ip), vehicle: saline with Tween-80): 112 % of control
T/C (endpoint: mean survival time, dose: 6.25 mg/kg/injection, schedule: Q04DX002 (ip), vehicle: saline with Tween-80): 97 % of control
T/C (endpoint: mean survival time, dose: 12.5 mg/kg/injection, schedule: Q04DX002 (ip), vehicle: saline with Tween-80): 93 % of control
T/C [1]: 97 % of control
T/C (endpoint: median survival time, dose: 200.0 mg/kg/injection, schedule: Q04DX002 (ip), vehicle: saline with Tween-80): 94 % of control

NCC(=O)Nc1ccc(O)cc1
T/C (endpoint: mean survival time, dose: 180.0 mg/kg/injection, schedule: Q04DX003 (ip), vehicle: saline): 104 % of control
T/C (endpoint: mean survival time, dose: 405.0 mg/kg/injection, schedule: Q04DX003 (ip), vehicle: saline): 98 % of control

Cc1cc(C)c(C(Cl)(Cl)Cl)c(C)c1Cl
T/C (endpoint: mean survival time, dose: 25.0 mg/kg/injection, schedule: Q01DX009 (ip), vehicle: saline with Tween-80): 108 % of control
T/C (endpoint: mean survival time, dose: 50.0 mg/kg/injection, schedule: Q01DX009 (ip), vehicle: saline with Tween-80): 111 % of control
T/C [8]: 107 % of control

O=S1(=O)CCCN1c1ccccc1
T/C [6]: 100 % of control
T/C [7]: 106 % of control
T/C [9]: 103 % of control

NCCCC(N)C(=O)O (stereo not given)
T/C (endpoint: median survival time, dose: 3.13 mg/kg/injection, schedule: Q04DX002 (ip), vehicle: saline): 111 % of control
T/C (endpoint: median survival time, dose: 6.25 mg/kg/injection, schedule: Q04DX002 (ip), vehicle: saline): 117 % of control
T/C (endpoint: median survival time, dose: 12.5 mg/kg/injection, schedule: Q04DX002 (ip), vehicle: saline): 108 % of control
T/C (endpoint: median survival time, dose: 50.0 mg/kg/injection, schedule: Q04DX002 (ip), vehicle: saline): 105 % of control

NC1CCCCC1N.O=S(=O)([O-])CCCN1CCN(CCO)CC1.O=S(=O)([O-])CCCN1CCN(CCO)CC1.[Pt+4]
T/C (endpoint: median survival time, dose: 0.78 mg/kg/injection, schedule: Q04DX003 (ip), vehicle: saline): 121 % of control
T/C (endpoint: median survival time, dose: 1.56 mg/kg/injection, schedule: Q04DX003 (ip), vehicle: saline): 120 % of control
T/C (endpoint: median survival time, dose: 6.25 mg/kg/injection, schedule: Q04DX003 (ip), vehicle: saline): 168 % of control and 175 % of control
T/C (endpoint: median survival time, dose: 12.5 mg/kg/injection, schedule: Q04DX003 (ip), vehicle: saline): 212 % of control and 487 % of control
T/C (endpoint: median survival time, dose: 25.0 mg/kg/injection, schedule: Q04DX003 (ip), vehicle: saline): 256 % of control and 487 % of control
T/C (endpoint: median survival time, dose: 50.0 mg/kg/injection, schedule: Q04DX003 (ip), vehicle: saline): 151 % of control and 170 % of control

C/C(=N\NC(N)=S)C1=C(O)C(Cc2ccccc2)NC1=O (stereo not given)
T/C [2]: 100 % of control
T/C (endpoint: mean survival time, dose: 200.0 mg/kg/injection, schedule: Q04DX002 (ip), vehicle: saline with Tween-80): 100 % of control
T/C (endpoint: mean survival time, dose: 400.0 mg/kg/injection, schedule: Q04DX002 (ip), vehicle: saline with Tween-80): 100 % of control

C(#CC[P+](c1ccccc1)(c1ccccc1)c1ccccc1)C[P+](c1ccccc1)(c1ccccc1)c1ccccc1
T/C (endpoint: mean survival time, dose: 0.78 mg/kg/injection, schedule: Q01DX009 (ip), vehicle: Klucel (hydroxypropylcellulose) (HPC)): 92 % of control
T/C (endpoint: mean survival time, dose: 1.56 mg/kg/injection, schedule: Q01DX009 (ip), vehicle: Klucel (hydroxypropylcellulose) (HPC)): 92 % of control
T/C (endpoint: mean survival time, dose: 3.12 mg/kg/injection, schedule: Q01DX009 (ip), vehicle: Klucel (hydroxypropylcellulose) (HPC)): 90 % of control
T/C (endpoint: mean survival time, dose: 6.25 mg/kg/injection, schedule: Q01DX009 (ip), vehicle: Klucel (hydroxypropylcellulose) (HPC)): 101 % of control
T/C (endpoint: mean survival time, dose: 12.5 mg/kg/injection, schedule: Q01DX009 (ip), vehicle: Klucel (hydroxypropylcellulose) (HPC)): 93 % of control and 107 % of control

c1ccc2[nH]c(C3CCCCN3)cc2c1 (stereo not given)
T/C [6]: 101 % of control
T/C [7]: 96 % of control

C=CCOc1ccccc1C(C)=O
T/C [10]: 104 % of control
T/C [11]: 107 % of control
T/C [12]: 107 % of control

O=c1cc([O-])[n+](C2OC(CO)C(O)C2O)c2sccn12 (stereo not given)
T/C (endpoint: median survival time, dose: 10.63 mg/kg/injection, schedule: Q01DX005 (ip), vehicle: water): 102 % of control
T/C (endpoint: median survival time, dose: 12.5 mg/kg/injection, schedule: Q01DX005 (ip), vehicle: saline): 102 % of control
T/C (endpoint: median survival time, dose: 21.25 mg/kg/injection, schedule: Q01DX005 (ip), vehicle: water): 98 % of control
T/C (endpoint: median survival time, dose: 25.0 mg/kg/injection, schedule: Q01DX005 (ip), vehicle: saline): 101 % of control
T/C (endpoint: median survival time, dose: 42.5 mg/kg/injection, schedule: Q01DX005 (ip), vehicle: water): 98 % of control
T/C (endpoint: median survival time, dose: 50.0 mg/kg/injection, schedule: Q01DX005 (ip), vehicle: saline): 98 % of control
T/C (endpoint: median survival time, dose: 85.0 mg/kg/injection, schedule: Q01DX005 (ip), vehicle: water): 102 % of control
T/C (endpoint: median survival time, dose: 100.0 mg/kg/injection, schedule: Q01DX005 (ip), vehicle: saline): 97 % of control
T/C (endpoint: median survival time, dose: 170.0 mg/kg/injection, schedule: Q01DX005 (ip), vehicle: water): 100 % of control
T/C (endpoint: median survival time, dose: 200.0 mg/kg/injection, schedule: Q01DX005 (ip), vehicle: saline): 98 % of control

CC(=O)Nc1cc2ccccc2c2ccc3ccccc3c12
T/C [8]: 89 % of control
T/C [10]: 96 % of control
T/C (endpoint: mean survival time, dose: 200.0 mg/kg/injection, schedule: Q01DX001 (ip), vehicle: saline with Tween-80): 93 % of control
T/C [11]: 95 % of control
T/C (endpoint: mean survival time, dose: 400.0 mg/kg/injection, schedule: Q01DX001 (ip), vehicle: saline with Tween-80): 102 % of control
T/C [12]: 96 % of control

CCOC(=O)CSc1ccc(F)cc1
T/C [6]: 90 % of control
T/C [7]: 100 % of control
T/C [9]: 91 % of control
